Experimental data as given in article PMC9588003, “TRPM8 contributes to sex dimorphism by promoting recovery of normal sensitivity in a mouse model of chronic migraine” (Nature Communications, 2022).

Target: human TRPM8 (hTRPM8) (Homo sapiens, UniProt Q7Z2W7)
Test: whole-cell patch clamp, hTRPM8-HEK293 cells; agonist dose-response
Format: cell-based

human TRPM8 (hTRPM8), sequence (Q7Z2W7 whole entry): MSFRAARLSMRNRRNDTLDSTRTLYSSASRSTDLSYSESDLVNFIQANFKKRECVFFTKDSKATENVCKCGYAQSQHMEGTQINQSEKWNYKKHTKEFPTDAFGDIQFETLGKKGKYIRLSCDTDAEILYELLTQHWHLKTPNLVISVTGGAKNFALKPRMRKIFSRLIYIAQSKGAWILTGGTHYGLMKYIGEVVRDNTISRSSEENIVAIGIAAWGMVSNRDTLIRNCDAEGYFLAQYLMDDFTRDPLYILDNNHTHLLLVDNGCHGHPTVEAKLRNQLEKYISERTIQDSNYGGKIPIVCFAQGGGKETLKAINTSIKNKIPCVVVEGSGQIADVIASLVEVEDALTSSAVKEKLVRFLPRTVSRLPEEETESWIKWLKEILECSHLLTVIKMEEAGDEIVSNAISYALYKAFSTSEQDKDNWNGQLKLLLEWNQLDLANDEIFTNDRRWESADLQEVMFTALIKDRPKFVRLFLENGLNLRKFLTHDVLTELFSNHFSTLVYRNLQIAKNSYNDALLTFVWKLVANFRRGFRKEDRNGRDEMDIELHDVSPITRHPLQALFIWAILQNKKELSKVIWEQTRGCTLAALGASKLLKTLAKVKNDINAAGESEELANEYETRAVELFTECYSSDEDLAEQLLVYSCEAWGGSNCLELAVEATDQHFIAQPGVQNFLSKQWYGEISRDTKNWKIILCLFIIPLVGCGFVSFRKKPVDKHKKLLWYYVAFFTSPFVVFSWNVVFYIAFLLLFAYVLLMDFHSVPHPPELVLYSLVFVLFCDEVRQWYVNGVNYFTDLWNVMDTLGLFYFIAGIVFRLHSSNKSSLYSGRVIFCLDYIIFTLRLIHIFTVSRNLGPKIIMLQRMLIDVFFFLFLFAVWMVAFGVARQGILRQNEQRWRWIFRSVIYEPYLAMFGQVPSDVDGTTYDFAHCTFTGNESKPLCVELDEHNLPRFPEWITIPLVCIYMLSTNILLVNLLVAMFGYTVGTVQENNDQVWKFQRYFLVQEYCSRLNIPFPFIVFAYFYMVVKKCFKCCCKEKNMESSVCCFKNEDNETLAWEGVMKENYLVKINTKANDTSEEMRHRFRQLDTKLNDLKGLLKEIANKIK

For `COc1ccc(NC(=O)[C@@H]2C[C@H](C)CC[C@H]2C(C)C)cc1` [WS12, (1R,2S,5R)−2-Isopropyl-N-(4-methoxyphenyl)−5-methylcyclohexanecarboxamide], the EC50 was 500 nM.
